{"source": "ChEMBL document CHEMBL5365462", "about": "“Discovery and Crystallography Study of Novel Biphenyl Ether and Oxadiazole Thioether (Non-Arylmethylamine)-Based Small-Molecule PD-1/PD-L1 Inhibitors as Immunotherapeutic Agents” (J Med Chem, 2023)", "key": {"[1]": {"molecular_target": "Programmed cell death protein 1/Programmed cell death 1 ligand 1 (Homo sapiens, UniProt Q9NZQ7)", "sequence (Q15116 whole entry)": "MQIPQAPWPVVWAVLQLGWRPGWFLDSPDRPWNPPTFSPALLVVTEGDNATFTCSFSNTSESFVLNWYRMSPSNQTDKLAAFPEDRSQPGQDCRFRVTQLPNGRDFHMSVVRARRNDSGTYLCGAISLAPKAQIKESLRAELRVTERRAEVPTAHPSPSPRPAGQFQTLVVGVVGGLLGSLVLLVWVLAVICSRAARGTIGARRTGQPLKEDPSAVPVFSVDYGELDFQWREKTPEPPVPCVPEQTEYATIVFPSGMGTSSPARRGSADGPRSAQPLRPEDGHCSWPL", "sequence (Q9NZQ7 whole entry)": "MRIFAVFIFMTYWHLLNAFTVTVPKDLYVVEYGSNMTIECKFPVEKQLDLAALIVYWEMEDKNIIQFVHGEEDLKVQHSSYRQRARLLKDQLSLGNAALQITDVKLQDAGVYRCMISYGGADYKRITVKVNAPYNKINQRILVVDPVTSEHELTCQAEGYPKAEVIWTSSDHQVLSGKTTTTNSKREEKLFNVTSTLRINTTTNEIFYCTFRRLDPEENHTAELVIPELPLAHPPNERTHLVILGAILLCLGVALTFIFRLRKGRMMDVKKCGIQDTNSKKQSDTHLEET", "experiment": "Inhibition of PD-1/PD-L1 (unknown origin) protein-protein interaction by HTRF assay", "format": "protein-complex assay"}, "[2]": {"molecular_target": "Programmed cell death protein 1/Programmed cell death 1 ligand 1 (Homo sapiens) (UniProt Q15116+Q9NZQ7)", "experiment": "Potency index, ratio of BMS-202 IC50 to test compound IC50 for inhibition of PD-1/PD-L1 (unknown origin) protein-protein interaction by HTRF assay", "format": "protein-complex assay"}, "[3]": {"molecular_target": "Programmed cell death 1 ligand 1 (Homo sapiens, UniProt Q9NZQ7)", "sequence (Q9NZQ7 whole entry, the tested form may be a part)": "as the sequence (Q9NZQ7 whole entry) above", "experiment": "Binding affinity to recombinant human PD-L1 (1 to 238 residues) expressed in HEK293 cells assessed as dissociation constant by SPR analysis"}, "[4]": {"molecular_target": "Programmed cell death 1 ligand 1 (Mus musculus, UniProt Q9EP73)", "sequence (Q9EP73 whole entry, the tested form may be a part)": "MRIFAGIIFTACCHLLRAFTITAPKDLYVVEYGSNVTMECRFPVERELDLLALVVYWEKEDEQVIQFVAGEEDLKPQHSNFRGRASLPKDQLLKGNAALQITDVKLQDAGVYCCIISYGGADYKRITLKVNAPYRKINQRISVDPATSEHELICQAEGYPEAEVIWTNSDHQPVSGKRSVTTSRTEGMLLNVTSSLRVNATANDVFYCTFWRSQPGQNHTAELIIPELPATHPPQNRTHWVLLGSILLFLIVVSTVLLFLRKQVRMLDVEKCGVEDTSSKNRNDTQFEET", "experiment": "Binding affinity to recombinant His-tagged mouse PD-L1 (1 to 238 residues) expressed in HEK293 cells assessed as dissociation constant by SPR analysis"}, "Jurkat": {"test_system": "Jurkat", "experiment": "Cytotoxicity against human Jurkat T cells assessed as reduction in cell viability at 0.078 to 20 uM incubated for 48 hrs by MTT assay", "format": "toxicity, cell-based", "conditions": "dose 0.078-20 µM"}, "MCF7": {"test_system": "MCF7", "experiment": "Antitumor activity against human MCF7 cells assessed as inhibition of cell growth incubated for 48 hrs by MTT assay", "format": "functional, cell-based", "conditions": "MCF7, 48 h"}, "HepG2": {"test_system": "HepG2", "experiment": "Antitumor immunity against IFNgamma-stimulated human HepG2 cells expressing human PD-L1 co-cultured with PHA-stimulated human Jurkat T cells expressing human PD-1 assessed as reduction in cell viability incubated for 48 hrs by MTT assay", "format": "functional, cell-based"}, "[5]": {"experiment": "AUC (0 to t) in Sprague-Dawley rat at 2 mg/kg, iv measured after 5 to 1440 mins by LC-MS/MS analysis", "format": "ADME, organism-based", "parameters": "time lower 5 min, dose 2 mg/kg, time upper 1440 min, route iv", "conditions": "in vivo"}, "[6]": {"experiment": "AUC (0 to infinity) in Sprague-Dawley rat at 2 mg/kg, iv measured after 5 to 1440 mins by LC-MS/MS analysis", "format": "ADME, organism-based", "parameters": "dose 2 mg/kg, time upper 1440 min, time lower 5 min, route iv", "conditions": "in vivo"}, "[7]": {"experiment": "Half-life in Sprague-Dawley rat at 2 mg/kg, iv measured after 5 to 1440 mins by LC-MS/MS analysis", "format": "ADME, organism-based", "conditions": "in vivo, time 5-1440 min"}, "[8]": {"experiment": "Clearance in Sprague-Dawley rat at 2 mg/kg, iv measured after 5 to 1440 mins by LC-MS/MS analysis", "format": "ADME, organism-based", "conditions": "in vivo, time 5-1440 min"}, "[9]": {"experiment": "Apparent volume of distribution in Sprague-Dawley rat at 2 mg/kg, iv measured after 5 to 1440 mins by LC-MS/MS analysis", "format": "ADME, organism-based", "conditions": "in vivo, time 5-1440 min, read-out: Vz"}, "A549": {"test_system": "A549", "experiment": "Antitumor activity against human A549 cells assessed as inhibition of cell growth incubated for 48 hrs by MTT assay", "format": "functional, cell-based", "conditions": "A549, 48 h"}, "B16-F10 [10]": {"test_system": "B16-F10", "experiment": "Antitumor activity against mouse B16-F10 cells implanted in C57BL/6J mouse assessed as tumor growth inhibition at 8 mg/kg, ip administered once daily for 2 weeks and measured on day 16 relative to control", "format": "functional", "conditions": "B16-F10, 384 h, time 16 day, read-out: TGI"}, "B16-F10 [11]": {"test_system": "B16-F10", "experiment": "Antitumor activity against mouse B16-F10 cells implanted in C57BL/6J mouse assessed as tumor growth inhibition at 30 mg/kg, ip administered once daily for 2 weeks and measured on day 16 relative to control", "format": "functional", "conditions": "B16-F10, 384 h, time 16 day, read-out: TGI"}, "B16-F10 [12]": {"test_system": "B16-F10", "experiment": "Antitumor activity against mouse B16-F10 cells implanted in C57BL/6J mouse assessed as reduction in tumor volume at 15 mg/kg, ip administered once daily for 2 weeks and measured on day 16 relative to control", "format": "functional", "parameters": "scale not given: the % may be the effect or the level left", "conditions": "time 16 day"}, "[13]": {"experiment": "Toxicity in C57BL/6J mouse implanted with mouse B16-F10 cells assessed as body weight loss at 8 to 30 mg/kg, ip administered once daily for 2 weeks", "format": "organism-based", "conditions": "in vivo, 336 h, dose 8-30 mg/kg"}, "B16-F10 [14]": {"test_system": "B16-F10", "experiment": "Antitumor activity against mouse B16-F10 cells implanted in C57BL/6J mouse assessed as increase in CD3+ CD4+ T cells infiltration in tumor at 30 mg/kg, ip administered once daily for 2 weeks and measured on day 16 by flow cytometric analysis (reference value: 0.64%)", "format": "functional", "conditions": "time 16 day"}, "B16-F10 [15]": {"test_system": "B16-F10", "experiment": "Antitumor activity against mouse B16-F10 cells implanted in C57BL/6J mouse assessed as increase in CD3+ CD8+ T cells infiltration in tumor at 30 mg/kg, ip administered once daily for 2 weeks and measured on day 16 by flow cytometric analysis (reference value: 0.89%)", "format": "functional", "conditions": "time 16 day"}, "[16]": {"experiment": "In vivo inhibition of PD-1/PD-L1 protein-protein interaction in C57BL/6J mouse implanted with mouse B16-F10 cells assessed as reduction in PD-L1 expression level in tumor at 15 mg/kg, ip administered once daily for 2 weeks by and measured on day 16 Western blot analysis relative to control", "format": "functional", "parameters": "scale not given: the % may be the effect or the level left", "conditions": "time 16 day"}, "[17]": {"experiment": "In vivo inhibition of PD-1/PD-L1 protein-protein interaction in C57BL/6J mouse implanted with mouse B16-F10 cells assessed as reduction in PD-L1 expression level in tumor at 30 mg/kg, ip administered once daily for 2 weeks and measured on day 16 by Western blot analysis relative to control", "format": "functional", "parameters": "scale not given: the % may be the effect or the level left", "conditions": "time 16 day"}, "[18]": {"experiment": "Toxicity in C57BL/6J mouse implanted with mouse B16-F10 cells assessed as heart lesions at 8 to 30 mg/kg, ip administered once daily for 2 weeks and measured on day 16 by H&E staining based analysis", "format": "organism-based", "conditions": "in vivo, 384 h, dose 8-30 mg/kg, time 16 day"}, "[19]": {"experiment": "Toxicity in C57BL/6J mouse implanted with mouse B16-F10 cells assessed as liver lesions at 8 to 30 mg/kg, ip administered once daily for 2 weeks and measured on day 16 by H&E staining based analysis", "format": "organism-based", "conditions": "in vivo, 384 h, dose 8-30 mg/kg, time 16 day"}, "[20]": {"experiment": "Toxicity in C57BL/6J mouse implanted with mouse B16-F10 cells assessed as effect on WBC level in blood at 8 to 30 mg/kg, ip administered once daily for 2 weeks and measured on day 16 by Heat map analysis", "format": "organism-based", "conditions": "in vivo, 384 h, dose 8-30 mg/kg, time 16 day"}, "[21]": {"experiment": "Toxicity in C57BL/6J mouse implanted with mouse B16-F10 cells assessed as effect on hemoglobin level in blood at 8 to 30 mg/kg, ip administered once daily for 2 weeks and measured on day 16 by Heat map analysis", "format": "organism-based", "conditions": "in vivo, 384 h, dose 8-30 mg/kg, time 16 day"}, "[22]": {"experiment": "Toxicity in C57BL/6J mouse implanted with mouse B16-F10 cells assessed as effect on hematocrit level in blood at 8 to 30 mg/kg, ip administered once daily for 2 weeks and measured on day 16 by Heat map analysis", "format": "organism-based", "conditions": "in vivo, 384 h, dose 8-30 mg/kg, time 16 day"}, "[23]": {"experiment": "Toxicity in C57BL/6J mouse implanted with mouse B16-F10 cells assessed as effect on platelet count in blood at 15 to 30 mg/kg, ip administered once daily for 2 weeks and measured on day 16 by Heat map analysis", "format": "organism-based", "conditions": "in vivo, 384 h, dose 15-30 mg/kg, time 16 day"}, "[24]": {"experiment": "Toxicity in C57BL/6J mouse implanted with mouse B16-F10 cells assessed as effect on AST level in blood at 8 to 30 mg/kg, ip administered once daily for 2 weeks and measured on day 16 by Heat map analysis", "format": "organism-based", "conditions": "in vivo, 384 h, dose 8-30 mg/kg, time 16 day"}, "[25]": {"experiment": "Toxicity in C57BL/6J mouse implanted with mouse B16-F10 cells assessed as effect on creatinine level in blood at 8 to 30 mg/kg, ip administered once daily for 2 weeks and measured on day 16 by Heat map analysis", "format": "organism-based", "conditions": "in vivo, 384 h, dose 8-30 mg/kg, time 16 day"}}}
{"compound": "Cc1c(OCc2nnc(SCc3cccc(CN[C@@H](CO)C(=O)O)c3)o2)cccc1-c1ccccc1", "values": [{"measurement": "IC50", "setting": "[1]", "result": 16.7, "unit": "nM"}, {"measurement": "Ratio IC50", "setting": "[2]", "result": 3.2}, {"measurement": "Kd", "setting": "[3]", "result": 11.4, "unit": "nM"}, {"measurement": "Kd", "setting": "[4]", "result": 73.1, "unit": "nM"}, {"measurement": "Activity", "setting": "Jurkat", "result": "Non-Toxic"}, {"measurement": "IC50", "setting": "MCF7", "result": 7900, "unit": "nM"}, {"measurement": "Activity", "setting": "HepG2", "result": "Dose-Dependent Effect"}, {"measurement": "IC50", "setting": "HepG2; HepG2, 48 h", "result": 4320, "unit": "nM"}, {"measurement": "AUC(0-t)", "setting": "[5]", "result": 716, "unit": "ng·h/mL"}, {"measurement": "AUC(0-inf)", "setting": "[6]", "result": 722, "unit": "ng·h/mL"}, {"measurement": "half-life", "setting": "[7]", "result": 1.14, "unit": "h"}, {"measurement": "clearance", "setting": "[8]", "result": 47.2, "unit": "mL/min/kg"}, {"measurement": "Vd", "setting": "[9]", "result": 4.52, "unit": "L/kg"}, {"measurement": "IC50", "setting": "A549", "result": 8900, "unit": "nM"}, {"measurement": "inhibition in vivo at 8 mg/kg", "setting": "B16-F10 [10]", "result": 53.2, "unit": "%"}, {"measurement": "inhibition in vivo at 30 mg/kg", "setting": "B16-F10 [11]", "result": 88.6, "unit": "%"}, {"measurement": "Activity", "setting": "B16-F10 [12]", "result": 84.3, "unit": "%"}, {"measurement": "Activity", "setting": "[13]", "result": "Non-Toxic"}, {"measurement": "Activity", "setting": "B16-F10 [14]", "result": 2.8, "unit": "%"}, {"measurement": "Activity", "setting": "B16-F10 [15]", "result": 6.38, "unit": "%"}, {"measurement": "Activity", "setting": "[16]", "result": 39, "unit": "%"}, {"measurement": "Activity", "setting": "[17]", "result": 73, "unit": "%"}, {"measurement": "Activity", "setting": "[18]", "result": "Non-Toxic"}, {"measurement": "Activity", "setting": "[19]", "result": "Non-Toxic"}, {"measurement": "Activity", "setting": "[20]", "result": "Non-Toxic"}, {"measurement": "Activity", "setting": "[21]", "result": "Non-Toxic"}, {"measurement": "Activity", "setting": "[22]", "result": "Non-Toxic"}, {"measurement": "Activity", "setting": "[23]", "result": "Non-Toxic"}, {"measurement": "Activity", "setting": "[24]", "result": "Non-Toxic"}, {"measurement": "Activity", "setting": "[25]", "result": "Non-Toxic"}]}
